From publication PMC8245553, “Identification of natural product modulators of Merkel cell carcinoma cell growth and survival” (Scientific Reports, 2021)

System: MKL-1 (VP-MCC) cells
Experiment: Differential growth inhibition/cytotoxicity assay (CellTiterGlo/XTT), MKL-1
Details: Homo sapiens, MKL-1, 72 h, read-out: IC50 (ave ± sd)

Work on `CC1(C)CCC(c2ccc(Cl)cc2)=C(CN2CCN(c3ccc(C(=O)NS(=O)(=O)c4ccc(N[C@H](CCN5CCOCC5)CSc5ccccc5)c(S(=O)(=O)C(F)(F)F)c4)cc3)CC2)C1` [Navitoclax] yielded an IC50 of 200 ± 29 nM.
